Results reported in paper PMC7504360 (International Journal of Molecular Sciences, 2020).
Like-named read-outs stand apart in the source and are kept apart here. Square brackets hold non-standard residues; d marks the D form. Peptide text beside a SMILES is read from it.

What was measured:
all bacterial strains = experiment: Mean MIC over all bacterial strains (GM); format: cell-based; conditions: mean MIC of all bacterial strains of Table 2
Description: (§1) Briefly, the microplates were inoculated with two-fold serial dilutions of each peptides in Mueller–Hinton (MH) media and then seeded with log-phase culture of aforementioned bacterial suspensions (2 × 10^5 CFU/mL). The microplates were incubated for 16 h at 37 °C, and absorbance was read at 600 nm using microplate reader SpectraMAX (Molecular Devices, San Jose, CA, USA).

[1] = tested on: sheep red blood cells (sRBCs); experiment: Hemolytic activity; format: cell-based
Description: The hemolytic activity of all Pro-peptides were tested against sheep red blood cells (sRBCs) as described in previous reports. Fresh sRBCs were washed three times with phosphate-buffered saline (PBS) followed by centrifugation for 5 min at 2500 rpm at 4 °C. Peptides (0.2 to 100 μM) in PBS were incubated with 4% (v/v) sRBCs for 1 h at 37 °C. The contents were then centrifuged for 5 min at 1000 × g. The absorbance of the supernatant at 405 nm was used as a measure of hemolysis, and three times independent measurements were averaged. As a control, 100% hemolysis was obtained by treating sRBCs with melittin.

[2] = tested on: MDREC 1229 (E. coli CCARM 1229)
Text: (§2) Two strains of gram-negative bacteria, namely E. coli (KCTC 1682) and A. baumannii (KCCM 40203) from the Korean Collection for Type Cultures (KCTC) (Taejon, Korea) and Korean Culture Center of Microorganisms (KCCM) (Seoul, South Korea). Escherichia coli K1 strain RS218 (O18:K1:H7) was a gift from Prof. Jang-Won Yoon in Kangwon National University (Chuncheon, South Korea). Multidrug-resistant gram-negative bacteria (E. coli CCARM 1229, E. coli CCARM 1238, A. baumannii CCARM 12010, and A. baumannii CCARM 12220) were obtained from the Culture Collection of Antibiotic-Resistant Microbes (CCARM) at Seoul Women’s University (Seoul, South Korea).
as §1

[3] = tested on: MDRAB 12220 (A. baumannii CCARM 12220)
Text: as §2, §1

E. Coli = tested on: E. Coli
Text: as §2, §1

[4] = tested on: A. baumannii (KCCM 40203)
Text: as §2, §1

[5] = tested on: MDREC 1238 (E. coli CCARM 1238)
Text: as §2, §1

[6] = tested on: MDRAB 12010 (A. baumannii CCARM 12010)
Text: as §2, §1

RAW264.7 cells = experiment: Cytotoxicity, WST-8 cell proliferation assay; format: cell-based, mouse; conditions: 24 h, WST-8, 450 nm, mean of three experiments
Description: Murine RAW264.7 macrophage cells were purchased from Korean Cell Line Bank (Seoul, South Korea). The cells were cultured in Dulbecco modified Eagle medium (DMEM) (Thermo Fischer Scientific Inc., MA, USA) supplemented with 10% fetal bovine serum, 100 U/mL penicillin, and […] streptomycin at 37 °C in a humidified 5% CO2 incubator. The cytotoxicity of peptides against RAW264.7 cells was determined using WST-8 Cell Proliferation Assay Kit (Biomax Co.,Ltd, Seoul, South Korea). Briefly, cells (1 × 10^5) were seeded in 96-well plated and then treated with 3.125, 6.25, 12.5, 25, and 50 μM of respective peptides for 24 h followed by addition of 10 μL of the WST-8 reagent for another 3 h incubation at 37 °C. The color intensity was read at 450 nm using a microplate reader.

chymotrypsin = experiment: Protease stability assay (antimicrobial activity after protease digestion); format: in vitro ADME; conditions: peptide–enzyme 10,000:1, PBS, 6 h at 37 °C preincubation, then E. coli and A. baumannii 2 × 10^5 CFU/mL, 16 h at 37 °C, 600 nm, repeated three times
Description: (§3) For stability analysis, all Pro-peptides at their MICs were incubated with trypsin and chymotrypsin at the ratio of 10,000:1 (peptide–enzyme) in PBS for 6 h at 37 °C. After incubation, 100 μL of peptide-protease mixture was added to the 100 μL bacterial suspension (E. coli and A. baumannii, 2 × 10^5 CFU/mL) and further incubated for 16 h at 37 °C. Melittin was used as standard peptide, and bacterial suspension without peptide and protease served as control. The experiment was repeated three times, and the extent of bacterial growth was measured at 600 nm using a microplate reader.

[7] = tested on: Standard gram-negative bacteria; conditions: table row printed 'Standard gram-negative bacteria'; MH media, 2 × 10^5 CFU/mL, 16 h at 37 °C, absorbance 600 nm; average of three measurements
Text: as §2, §1

trypsin = experiment: Protease stability assay (antimicrobial activity after protease digestion); format: in vitro ADME; conditions: peptide–enzyme 10,000:1, PBS, 6 h at 37 °C preincubation, then E. coli and A. baumannii 2 × 10^5 CFU/mL, 16 h at 37 °C, 600 nm, repeated three times
Description: as §3

[8] = LPS neutralization, limulus amebocyte lysate (LAL) assay; format: biochemical, Escherichia coli O111:B4; conditions: 50 μM peptide, 20 ng/mL LPS, 30 min at 37 °C, LAL chromogenic kit, 405 nm; triplicate
Description: The LPS-neutralizing activity of all peptides was determined using the Pierce LAL chromogenic endotoxin quantitation kit (ThermoFisher Scientific, MA, USA). All peptides including standard (Polymixin B) at varying concentrations (3.12, 6.25, 12.5, 25, and 50 μM in endotoxin-free water) were allowed to bind with 20 ng/mL of LPS in a 96-well plate for 30 min at 37 °C. To this, an equal volume (10 μL) of LAL reagent was added and incubated for 10 min at 37 °C and then 20μL of LAL chromogenic substrate was added. After 15 min incubation at 37 °C, the reaction was stopped by 25% acetic acid and the reduction in yellow color formation due to the substrate was measured at 405 nm on an absorbance microplate reader. The experiment was conducted in triplicate, and the changes in absorbance due to peptide-LPS interaction are indicated as percent LPS neutralization.

| Compound | HC10 (peptide concentration inducing 10% hemolysis) ([1]; red cells of sheep, 1 h) | Minimal Inhibitory Concentration (MIC100) ([2]; CCARM 1229, 16 h) | Minimal Inhibitory Concentration (MIC100) ([3]; CCARM 12220, 16 h) | Minimal Inhibitory Concentration (MIC100) (E. Coli; 16 h) | Minimal Inhibitory Concentration (MIC100) ([4]; KCCM 40203, 16 h) | Minimal Inhibitory Concentration (MIC100) ([5]; CCARM 1238, 16 h) | Minimal Inhibitory Concentration (MIC100) ([6]; CCARM 12010, 16 h) | survival rate of RAW264.7 cells (RAW264.7 cells; 25 μM) | survival rate of RAW264.7 cells (RAW264.7 cells; 50 μM) | peptide concentration up to which bacterial growth was not inhibited in the presence of protease (chymotrypsin) | Minimal Inhibitory Concentration (MIC100) [7] | also measured |
| --- | --- | --- | --- | --- | --- | --- | --- | --- | --- | --- | --- | --- |
| CC[C@H](C)[C@H](NC(=O)CN)C(=O)NCC(=O)N[C@@H](C)C(=O)N[C@H](C(=O)N[C@@H](CC(C)C)C(=O)N[C@@H](CCCCN)C(=O)N[C@H](C(=O)N[C@@H](CC(C)C)C(=O)N[C@H](C(=O)N[C@H](C(=O)NCC(=O)N[C@@H](CC(C)C)C(=O)N1CCC[C@H]1C(=O)N[C@@H](C)C(=O)N[C@@H](CC(C)C)C(=O)N[C@H](C(=O)N[C@@H](CO)C(=O)N[C@@H](Cc1c[nH]c2ccccc12)C(=O)N[C@H](C(=O)N[C@@H](CCCCN)C(=O)N[C@@H](CCCNC(=N)N)C(=O)N[C@@H](CCCCN)C(=O)N[C@@H](CCCNC(=N)N)C(=O)N[C@@H](CCC(N)=O)C(=O)N[C@@H](CCC(N)=O)C(N)=O)[C@@H](C)CC)[C@@H](C)CC)[C@@H](C)O)[C@@H](C)O)C(C)C)C(C)C [Melittin, reference compound] |  |  |  |  |  |  |  |  |  |  |  | GM (geometric mean of MIC values of all bacterial strains) (all bacterial strains): 12.0 µM |
| CC[C@@H](C)[C@@H](NC(=O)[C@@H](C)NC(=O)[C@@H](CC(C)C)NC(=O)[C@@H](Cc1c[nH]c2ccccc12)NC(=O)[C@@H](CC(C)C)NC(=O)[C@H](N)CCCNC(=N)N)C(=O)N[C@H](Cc1c[nH]c2ccccc12)C(=O)N[C@H](CCCNC(=N)N)C(=O)N[C@H](CCCNC(=N)N)C(N)=O [Pro9-3D] (H-[dR][dL][dW][dL][dA][dI][dW][dR][dR]-NH2) | 200 µM | 8 µM | 8 µM | 4 µM | 4 µM | 4 µM | 8 µM | 68% | 51.8% |  |  |  |
| CC[C@H](C)[C@H](NC(=O)[C@H](C)NC(=O)[C@H](CC(C)C)NC(=O)[C@H](Cc1c[nH]c2ccccc12)NC(=O)[C@H](CC(C)C)NC(=O)[C@@H](N)CCCNC(=N)N)C(=O)N[C@@H](Cc1c[nH]c2ccccc12)C(=O)N[C@@H](CCCNC(=N)N)C(=O)N[C@@H](CCCNC(=N)N)C(N)=O [Pro9-3] (H-RLWLAIWRR-NH2) | 200 µM | 16 µM | 16 µM | 16 µM | 16 µM | 32 µM | 16 µM | 95% | 94% | > 64 µM | 16 µM |  |
| CC[C@H](C)[C@H](NC(=O)[C@H](C)NC(=O)[C@H](CC(C)C)NC(=O)[C@H](Cc1c[nH]c2ccccc12)NC(=O)[C@H](CC(C)C)NC(=O)[C@H](CCCNC(=N)N)NC(=O)[C@@H](N)CCCNC(=N)N)C(=O)N[C@@H](Cc1c[nH]c2ccccc12)C(=O)N[C@@H](CCCNC(=N)N)C(=O)N[C@@H](CCCNC(=N)N)C(N)=O [Pro10-1] (H-RRLWLAIWRR-NH2) |  |  |  |  |  |  |  | 90% | 87% | > 64 µM | 16 µM | peptide concentration up to which bacterial growth was not inhibited in the presence of protease (trypsin): > 64 µM; hemolysis ([1]; 100 μM peptide, 4% (v/v) sRBCs in PBS, 1 h at 37 °C, absorbance 405 nm, three measurements averaged): no hemolytic activity; HC10 (peptide concentration inducing 10% hemolysis) ([1]; heparinized sheep red blood cells, 200 μM entered when no detectable hemolysis was observed at 100 μM): 200 µM; Minimal Inhibitory Concentration (MIC100) ([2]; MDREC 1229, MH media, 2 × 10^5 CFU/mL, 16 h at 37 °C, absorbance 600 nm, average of three measurements): 8 µM; Minimal Inhibitory Concentration (MIC100) ([3]; MDRAB 12220, MH media, 2 × 10^5 CFU/mL, 16 h at 37 °C, absorbance 600 nm, average of three measurements): 16 µM; Minimal Inhibitory Concentration (MIC100) (E. Coli; table row printed 'E. Coli', MH media, 2 × 10^5 CFU/mL, 16 h at 37 °C, absorbance 600 nm, average of three measurements): 16 µM; Minimal Inhibitory Concentration (MIC100) ([4]; A. baumannii, MH media, 2 × 10^5 CFU/mL, 16 h at 37 °C, absorbance 600 nm, average of three measurements): 8 µM; Minimal Inhibitory Concentration (MIC100) ([5]; MDREC 1238, MH media, 2 × 10^5 CFU/mL, 16 h at 37 °C, absorbance 600 nm, average of three measurements): 32 µM; Minimal Inhibitory Concentration (MIC100) ([6]; MDRAB 12010, MH media, 2 × 10^5 CFU/mL, 16 h at 37 °C, absorbance 600 nm, average of three measurements): 8 µM |
| polymyxin B [reference compound] |  |  |  |  |  |  |  |  |  |  |  | inhibition of the activation of LPS (LPS neutralization) [8]: 67.4% |
